Measured values from patent US20250263426A1, “PDE4B INHIBITOR AND USE THEREOF” (Xizang Haisco Pharmaceutical Co., Ltd., priority 2022, published 2025).
Like-named read-outs stand apart in the source and are kept apart here.

Tests used:
[1] = molecular target: PDE4B2 (Homo sapiens (Human), UniProt Q07343); assay: Effect of compounds on PDE4B2 activity (fluorescence polarization kit)
[2] = molecular target: PDE4D2 (Homo sapiens (Human), UniProt Q08499); assay: Effect of compounds on PDE4D2 activity (fluorescence polarization kit); format: biochemical
Chain of PDE4D2 (Q08499 303-809, change not shown): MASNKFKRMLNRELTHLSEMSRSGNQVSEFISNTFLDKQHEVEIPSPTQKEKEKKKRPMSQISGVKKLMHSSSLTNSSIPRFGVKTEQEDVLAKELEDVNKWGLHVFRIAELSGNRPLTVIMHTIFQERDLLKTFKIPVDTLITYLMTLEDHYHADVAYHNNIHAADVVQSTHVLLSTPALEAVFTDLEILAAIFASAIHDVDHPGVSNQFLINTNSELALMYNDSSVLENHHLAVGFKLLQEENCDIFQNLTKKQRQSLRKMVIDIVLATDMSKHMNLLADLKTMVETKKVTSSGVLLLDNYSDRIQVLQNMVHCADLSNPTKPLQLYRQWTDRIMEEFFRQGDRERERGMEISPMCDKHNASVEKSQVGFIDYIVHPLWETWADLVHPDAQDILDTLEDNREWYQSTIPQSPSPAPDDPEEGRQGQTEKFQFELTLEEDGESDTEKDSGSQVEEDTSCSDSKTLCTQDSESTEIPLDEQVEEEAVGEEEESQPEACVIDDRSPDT
Protocol: FP was usually represented by mP value.
[formula] • I∥ (S520): fluorescence intensity in parallel direction • I⊥ (P520): fluorescence intensity in perpendicular direction • G: G factor=1
[formula] • mP(sample): mP of the test compound in a reaction well • mP(negative control): mP in the negative control well • mP(positive control): mP in the positive control well
According to the calculated inhibition rate at each concentration, the IC50 value of each compound was calculated by GraphPad Prism 8 software.

[3] = tested on: human peripheral blood mononuclear cells (TNF-α release); assay: Inhibition of LPS-induced TNF-α release from human peripheral blood mononuclear cells in vitro; format: cell-based; settings: 4 h; for IC50: read-out: Re IC50
Protocol: 5. Detection of Inhibitory Activity of Compounds on the Release of Tumor Necrosis Factor-α (TNF-α) from Human Peripheral Blood Mononuclear Cells Induced by Lipopolysaccharide (LPS) In Vitro
The concentration of hPBMC cells was adjusted to 0.25×10^6 cells/mL with RPMI1640 medium and inoculated into a 96-well plate in an amount of 50000 cells per well. […] Incubation was carried out for 4 h in an incubator at 37° C. and 5% CO2. The cell supernatant was collected, and the content of TNF-α in the supernatant sample was detected by human TNF-α Elisa quantitative test kit (Sino Biological, Cat #KIT10602). The IC50 value was calculated using GraphPad Prism software.

[4] = relative IC50, hPBMC, 100 ng/mL LPS

Chain of PDE4B2 (Q07343 other isoform, or with tags, fused parts or gaps): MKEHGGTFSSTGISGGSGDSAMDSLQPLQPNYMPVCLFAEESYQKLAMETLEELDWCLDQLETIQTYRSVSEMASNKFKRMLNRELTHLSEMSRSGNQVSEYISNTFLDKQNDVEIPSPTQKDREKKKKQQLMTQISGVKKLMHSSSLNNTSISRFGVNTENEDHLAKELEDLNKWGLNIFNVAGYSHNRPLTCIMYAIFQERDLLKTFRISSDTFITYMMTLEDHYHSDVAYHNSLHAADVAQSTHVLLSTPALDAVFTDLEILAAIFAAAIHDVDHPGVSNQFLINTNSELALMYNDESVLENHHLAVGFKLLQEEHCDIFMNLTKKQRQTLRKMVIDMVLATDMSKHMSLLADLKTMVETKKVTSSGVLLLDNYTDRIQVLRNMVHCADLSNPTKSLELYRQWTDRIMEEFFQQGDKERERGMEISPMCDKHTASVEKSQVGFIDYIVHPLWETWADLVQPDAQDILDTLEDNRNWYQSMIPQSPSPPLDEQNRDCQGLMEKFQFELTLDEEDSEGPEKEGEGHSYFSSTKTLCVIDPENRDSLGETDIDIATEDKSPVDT

Row | SMILES | IC50 ([1]; read-out: PDE4B2 IC50) | IC50 [2] | IC50 [1] | other results
1 | [O-][S+]1CCc2nc(N3C[C@@H]4CC(c5ccc(Cl)cc5)=C[C@@H]4C3)nc(NC3CN(CCCF)C3)c21 (single isomer, unassigned) [Compound 24-2] | < 10 nM | 10 to 50 nM | – | –
2 | CC#Cc1cnc(C2=CCN(c3nc4c(c(NC(C)(C)COC(N)=O)n3)[S+]([O-])CC4)CC2)nc1 (single isomer, unassigned) [Compound 110-1] | – | – | – | Max inhibition (%) ([3]; hPBMC, 100 ng/mL LPS): 88.09%; IC50 [3, 4]: < 10 nM
3 | CC#Cc1cnc(C2=CCN(c3nc4c(c(NC(C)(C)COC(N)=O)n3)[S+]([O-])CC4)CC2)nc1 (single isomer, unassigned) [Compound 110-2] | – | – | – | Max inhibition (%) ([3]; hPBMC, 100 ng/mL LPS): 74.07%; IC50 [3, 4]: < 10 nM
4 | [O-][S@@+]1CCCc2nc(N3CCN(c4ncc(Cl)cn4)CC3)nc(NC3(CO)CCC3)c21 [Compound 12-2] | < 10 nM | 10 to 50 nM | – | –
5 | [O-][S@@+]1CCCc2nc(N3C[C@H]4CN(c5ccc6c(c5)CC6)C[C@H]4C3)nc(NC3(CO)CCC3)c21 [Compound 13-2] | < 10 nM | 10 to 50 nM | – | –
6 | [O-][S@@+]1CCCc2nc(N3C[C@H]4CN(c5ncc(Cl)cn5)C[C@H]4C3)nc(NC3(CO)CCC3)c21 [Compound 14-1] | 10 to 50 nM | 10 to 50 nM | – | –
7 | [O-][S@+]1CCCc2nc(N3C[C@H]4CN(c5ccc(Cl)cc5)C[C@H]4C3)nc(NC3(CO)CCC3)c21 [Compound 15-2] | < 10 nM | 10 to 50 nM | – | –
8 | [O-][S@@+]1CCCc2nc(N3CCC=C(c4ccc(Cl)cc4)CC3)nc(NC3(CO)CCC3)c21 [Compound 16-2] | 10 to 50 nM | 10 to 50 nM | – | –
9 | [O-][S@@+]1CCCc2nc(N3CCC=C(c4ncc(Cl)cn4)CC3)nc(NC3(CO)CCC3)c21 [Compound 17-2] | < 10 nM | 10 to 50 nM | – | –
10 | O=C1CCCc2nc(N3CC4=C(CN(c5ncc(Cl)cn5)C4)C3)nc(NC3(CO)CCC3)c21 [Compound 19-1] | < 10 nM | 10 to 50 nM | – | –
11 | [O-][S@+]1CCc2nc(N3CC=C(c4ncc(Cl)cn4)CC3)nc(NC3(CO)CCCC3)c21 [Compound 30] | – | < 10 nM | < 10 nM | –
12 | CC(C)(CO)Nc1nc(N2CC=C(c3ncc(Cl)cn3)CC2)nc2c1[S+]([O-])CC2 (stereo not drawn) [Compound 31] | – | 10 to 50 nM | 10 to 50 nM | –
13 | C#Cc1cnc(C2=CCN(c3nc4c(c(Nc5cccc(F)c5)n3)[S@@+]([O-])CC4)CC2)nc1 [Compound 36-2] | 10 to 50 nM | 10 to 50 nM | – | –
14 | C#Cc1cnc(C2=CCN(c3nc4c(c(NC5(c6ncc[nH]6)CCC5)n3)[S@+]([O-])CC4)CC2)nc1 [Compound 37] | – | – | – | IC50 ([3]; Homo sapiens, PBMC): 10 to 50 nM; Emax ([3]; Homo sapiens, PBMC, hPBMC, 100 ng/mL LPS, read-out: Max inhibition (%)): 78.3%
15 | NC(=O)OCC1(Nc2nc(N3CC=C(c4ncc(C5CC5)cn4)CC3)nc3c2[S@+]([O-])CC3)CCC1 [Compound 47] | – | < 10 nM | – | Max inhibition (%) ([3]; hPBMC, 100 ng/mL LPS): 80.45%; IC50 [3, 4]: < 10 nM
16 | O=S1(=O)CCCc2nc(N3CC=C(c4ncc(Cl)cn4)CC3)nc(NC3(CO)CCC3)c21 [Compound 54] | – | – | 50 to 100 nM | –
17 | NC(=O)OCC1(Nc2nc(N3CCC(c4ncc(Cl)cn4)CC3)nc3c2[S@+]([O-])CC3)CCC1 [Compound 55] | – | – | 50 to 100 nM | –
18 | C#Cc1cnc(N2CCN(c3nc4c(c(NC5(COC(N)=O)CCC5)n3)[S@+]([O-])CC4)CC2)nc1 [Compound 57] | – | 10 to 50 nM | < 10 nM | –
19 | NC(=O)OCC1(Nc2nc(N3C[C@H]4CN(c5ccc6c(c5)CC6)C[C@H]4C3)nc3c2[S@+]([O-])CC3)CCC1 [Compound 58] | – | 10 to 50 nM | < 10 nM | –
20 | [O-][S@+]1CCc2nc(N3CC4CN(c5ccc6c(c5)CC6)CC4C3)nc(Nc3cccc(S(F)(F)(F)(F)F)c3)c21 (stereo partly drawn) [Compound 75-1] | 10 to 50 nM | 10 to 50 nM | – | –
21 | CC#Cc1cnc(C2=CCN(c3nc4c(c(NC5(COC(F)F)CCC5)n3)[S@+]([O-])CC4)CC2)nc1 [Compound 92-1] | – | < 10 nM | – | Max inhibition (%) ([3]; hPBMC, 100 ng/mL LPS): 69.72%; IC50 [3, 4]: < 10 nM
22 | CC#Cc1cnc(C2=CCN(c3nc4c(c(NC5(COC(F)F)CCC5)n3)[S@@+]([O-])CC4)CC2)nc1 [Compound 92-2] | – | 10 to 50 nM | – | –

Row | SMILES | IC50 ([1]; read-out: PDE4B2 IC50) | IC50 [2] | IC50 [1] | other results
23 | C#Cc1ccc(C2=CCN(c3nc4c(c(NC5([C@@H](C)O)CCC5)n3)[S@+]([O-])CC4)CC2)nc1 [Compound 95-1] | < 10 nM | < 10 nM | – | –
24 | C#Cc1ccc(C2=CCN(c3nc4c(c(NC5([C@H](C)O)CCC5)n3)[S@@+]([O-])CC4)CC2)nc1 [Compound 95-4] | < 10 nM | < 10 nM | – | –
25 | C#Cc1cnc(C2=CCN(c3nc4c(c(NC5([C@@H](C)O)CCC5)n3)[S@@+]([O-])CC4)CC2)nc1 [Compound 96-3] | < 10 nM | 10 to 50 nM | – | –
26 | CC(C)(COC(N)=O)Nc1nc(N2CCC=C(c3ncc(Cl)cn3)CC2)nc2c1[S@+]([O-])CC2 [Compound 102-1] | – | – | – | Max inhibition (%) ([3]; hPBMC, 100 ng/mL LPS): 99.73%; IC50 [3, 4]: 10 to 50 nM
27 | CC(C)(COC(N)=O)Nc1nc(N2CCC=C(c3ncc(Cl)cn3)CC2)nc2c1[S@@+]([O-])CC2 [Compound 102-2] | – | – | – | Max inhibition (%) ([3]; hPBMC, 100 ng/mL LPS): 87.54%; IC50 [3, 4]: < 10 nM
28 | CC(C)(CO)Nc1nc(N2CC=C(c3ccc4c(c3)C[Si](C)(C)C4)CC2)nc2c1[S@+]([O-])CC2 [Compound 107] | 10 to 50 nM | 10 to 50 nM | – | –
29 | CC(C)(COC(N)=O)Nc1nc(N2CC=C(c3ccc4c(c3)C[Si](C)(C)C4)CC2)nc2c1[S@+]([O-])CC2 [Compound 108] | – | 10 to 50 nM | 10 to 50 nM | –
30 | CN1C[C@@H](Nc2nc(N3C[C@H]4CN(c5ccc6c(c5)CC6)C[C@H]4C3)nc3c2[S@+]([O-])CC3)CCC1=O [Compound 109-2] | 10 to 50 nM | 50 to 100 nM | – | –
31 | CC#Cc1cnc2c(c1)OC[C@H]1CN(c3nc4c(c(NC(C)(C)COC(N)=O)n3)[S@+]([O-])CC4)CCN21 [Compound 112-2] | 10 to 50 nM | 50 to 100 nM | – | –
32 | CC(C)(COC(N)=O)Nc1nc(N2CCN3c4ncc(C5CC5)cc4OC[C@H]3C2)nc2c1[S@+]([O-])CC2 [Compound 113-2] | 10 to 50 nM | 50 to 100 nM | – | –
33 | CC(C)(COC(N)=O)Nc1nc(N2CC=C(c3ncc(C4CC4)cn3)C2)nc2c1[S@+]([O-])CC2 [Compound 116] | – | 50 to 100 nM | 10 to 50 nM | –
34 | CC(C)(COC(N)=O)Nc1nc(N2CC=C(c3ncccn3)CC2)nc2c1[S@+]([O-])CC2 [Compound 118] | – | 10 to 50 nM | 10 to 50 nM | –
35 | Cc1cnc(C2=CCN(c3nc4c(c(NC(C)(C)COC(N)=O)n3)[S@+]([O-])CC4)CC2)nc1 [Compound 122] | – | 10 to 50 nM | 10 to 50 nM | –
36 | COc1cnc(C2=CCN(c3nc4c(c(NC(C)(C)COC(N)=O)n3)[S@+]([O-])CC4)CC2)nc1 [Compound 124] | – | 10 to 50 nM | 10 to 50 nM | –
37 | CC(C)(COC(N)=O)Nc1nc(N2CC=C(c3ncc4c(n3)CCC4)CC2)nc2c1[S@+]([O-])CC2 [Compound 125] | – | 10 to 50 nM | 10 to 50 nM | –
38 | CC(C)(COC(N)=O)Nc1nc(N2CC=C(c3ncc(C4CCC4)cn3)CC2)nc2c1[S@+]([O-])CC2 [Compound 126] | – | 10 to 50 nM | < 10 nM | –
39 | CCOc1cnc(C2=CCN(c3nc4c(c(NC(C)(C)COC(N)=O)n3)[S@+]([O-])CC4)CC2)nc1 [Compound 128] | – | < 10 nM | < 10 nM | –
40 | CC(C)c1cnc(C2=CCN(c3nc4c(c(NC(C)(C)COC(N)=O)n3)[S@+]([O-])CC4)CC2)nc1 [Compound 129] | – | 10 to 50 nM | < 10 nM | –
41 | CC(C)(COC(N)=O)Nc1nc(N2CC=C(c3ncc(C(F)F)cn3)CC2)nc2c1[S@+]([O-])CC2 [Compound 130] | – | 10 to 50 nM | 10 to 50 nM | –
42 | CC(C)(COC(N)=O)Nc1nc(N2CC=C(c3ncc4c(n3)CC4)CC2)nc2c1[S@+]([O-])CC2 [Compound 132] | – | 10 to 50 nM | 10 to 50 nM | –
43 | CC(C)(CC#N)Nc1nc(N2CC=C(c3ncc(C4CC4)cn3)CC2)nc2c1[S@+]([O-])CC2 [Compound 134] | < 10 nM | < 10 nM | – | –
44 | N#CCC1(Nc2nc(N3CC=C(c4ncc(C5CC5)cn4)CC3)nc3c2[S@+]([O-])CC3)CCC1 [Compound 135] | – | < 10 nM | < 10 nM | –
